SMILES strings stand for the structures.

One data set has as its target T1, human EGF-R (Homo sapiens, UniProt P00533).
T1 construct: expressed in transfected cells; host or cells: F/L-HERc cells (murine IL-3-dependent FDC-P1 cells transduced with retroviral vector LXSN carrying human EGF-R cDNA; packaging line GP+E86)
The experiment in a line: Inhibition of EGF-dependent proliferation of F/L-HERc cells (Cell Titer 96 Aqueous Non-Radioactive Cell Proliferation Assay). Conditions: F/L-HERc cells (murine IL-3-dependent line expressing human EGF-R), stimulated with EGF 20 ng/ml, 48 hours at 37° C., relative cell number as % of control. The format is cell-based. The text has this: The biological properties of the new compounds were investigated as follows. […] A cell line of murine origin dependent on interleukin-3-(IL-3) which was genetically modified to express functional human EGF-R was used here. The proliferation of these cells known as F/L-HERc can therefore be stimulated either by murine IL-3 or by EGF (cf. T. von Rüden et al. in EMBO J. 7, 2749-2756 (1988) and J. H. Pierce et al. in Science 239, 628-631 (1988)). The starting material used for the F/L-HERc cells was the cell line FDC-P1, the production of which has been described by T. M. Dexter et al. in J. Exp. Med. 152, 1036-1047 (1980). Alternatively, however, other growth-factor-dependent cells may also be used (cf. for example, J. H. Pierce et al. in Science 239, 628-631 (1988); H. Shibuya et al. in Cell 70, 57-67 (1992) and W. S. Alexander in EMBO J. 10, 3683-3691 (1991)). For expressing the human EGF-R cDNA (cf. A. Ullrich et al. in Nature 309, 418-425 (1984)) recombinant retroviruses were used as described by T. von Rüden et al., EMBO J. 7, 2749-2756 (1988), except that the retroviral vector LXSN (cf. A. D. Miller et al. in BioTechniques 7, 980-990 (1989)) was used for the expression of the EGF-R cDNA and the line GP+E86 (cf. D. Markowitz et al. in J. Virol. 62, 1120-1124 (1988)) was used as the packaging cell.
The test was performed as follows. F/L-HERc cells were cultivated in RPMI/1640 medium (BioWhittaker), supplemented with 10% fetal calf serum (FCS, Boehringer Mannheim), 2 mM glutamine (BioWhittaker), standard antibiotics and 20 ng/ml of human EGF (Promega), at 37° C. and 5% CO2—In order to investigate the inhibitory activity of the compounds according to the invention, 1.5×10^4 cells per well were cultivated in triplicate in 96-well dishes in the above medium (200 μl), the cell proliferation being stimulated with either EGF (20 ng/ml) or murine IL-3. The IL-3 used was obtained from culture supernatants of the cell line X63/0 mL-3 (cf. H. Karasuyama et al. in Eur. J. Immunol. 18, 97-104 (1988)). The compounds according to the invention were dissolved in 100% dimethylsulfoxide (DMSO) and added to the cultures in various dilutions, the maximum DMSO concentration being 1%. The cultures were incubated for 48 hours at 37° C.
In order to determine the inhibitory activity of the compounds according to the invention the relative cell number was measured in O.D. units using the Cell Titer 96™ Aqueous Non-Radioactive Cell Proliferation Assay (Promega). The relative cell number was calculated as a percentage of the control (F/LHERc cells without inhibitor) and the concentration of active substance which inhibits the proliferation of the cells by 50% (IC50) was derived therefrom.

T1 sequence (P00533 25-1210): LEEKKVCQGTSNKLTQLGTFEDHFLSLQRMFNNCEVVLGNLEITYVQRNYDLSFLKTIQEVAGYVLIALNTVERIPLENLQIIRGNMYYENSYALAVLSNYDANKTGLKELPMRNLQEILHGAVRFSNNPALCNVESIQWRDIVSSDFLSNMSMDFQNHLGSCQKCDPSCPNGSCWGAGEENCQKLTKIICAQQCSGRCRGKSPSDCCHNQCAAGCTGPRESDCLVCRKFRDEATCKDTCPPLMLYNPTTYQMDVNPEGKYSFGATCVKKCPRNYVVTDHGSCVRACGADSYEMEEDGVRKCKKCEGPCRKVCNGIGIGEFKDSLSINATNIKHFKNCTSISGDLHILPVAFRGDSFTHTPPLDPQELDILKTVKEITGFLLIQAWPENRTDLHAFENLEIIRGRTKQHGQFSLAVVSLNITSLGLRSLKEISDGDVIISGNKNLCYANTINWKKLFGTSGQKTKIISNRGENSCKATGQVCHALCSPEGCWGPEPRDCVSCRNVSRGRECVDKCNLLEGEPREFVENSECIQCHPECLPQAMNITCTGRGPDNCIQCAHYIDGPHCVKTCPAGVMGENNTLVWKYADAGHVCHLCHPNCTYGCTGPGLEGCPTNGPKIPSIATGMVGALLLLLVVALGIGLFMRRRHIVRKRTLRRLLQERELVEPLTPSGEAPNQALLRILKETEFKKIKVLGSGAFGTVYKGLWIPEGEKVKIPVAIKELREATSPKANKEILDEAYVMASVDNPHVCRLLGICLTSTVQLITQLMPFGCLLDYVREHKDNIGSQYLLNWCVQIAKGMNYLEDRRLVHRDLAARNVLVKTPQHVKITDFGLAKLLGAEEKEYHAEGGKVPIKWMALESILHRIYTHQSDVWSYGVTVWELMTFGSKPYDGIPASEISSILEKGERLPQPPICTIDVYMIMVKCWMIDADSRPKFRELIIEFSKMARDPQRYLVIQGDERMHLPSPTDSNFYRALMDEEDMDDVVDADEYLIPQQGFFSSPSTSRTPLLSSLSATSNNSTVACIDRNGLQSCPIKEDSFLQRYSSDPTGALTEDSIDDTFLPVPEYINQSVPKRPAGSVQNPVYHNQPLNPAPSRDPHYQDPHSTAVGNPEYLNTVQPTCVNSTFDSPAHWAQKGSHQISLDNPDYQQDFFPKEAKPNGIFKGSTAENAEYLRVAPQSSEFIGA

`CCOC(=O)CN1CCC[C@H]1COc1cc2c(Nc3cccc(Br)c3)ncnc2cc1OC` [1(2), (s)-4-[(3-bromophenyl)amino]-6-({1-[(ethoxycarbonyl)methyl]pyrrolidin-2-yl}methoxy)-7-methoxyquinazoline]: on human EGF-R, the IC50 is 20 nM.
On the same count and under the same terms, with `COC(=O)[C@@H]1CCCN1CCCOc1cc2c(Nc3cccc(Br)c3)ncnc2cc1OC` [2(1), (s)-4-[(3-bromophenyl)amino]-6-[3-(2-methoxycarbonylpyrrolidin-1-yl)propyloxy]-7-methoxyquinazoline] the figure was 39 nM.
As to `CCOC(=O)CN(C)CCOc1cc2c(Nc3cccc(Br)c3)ncnc2cc1OC` [3(1), 4-[(3-bromophenyl)amino]-6-(2-{N-[(ethoxycarbonyl)methyl]-N-methylamino}ethoxy)-7-methoxyquinazoline], on human EGF-R, the IC50 is 100 nM.
On the same count and under the same terms, in the case of `CCOC(=O)CN(CCOc1cc2c(Nc3cccc(Br)c3)ncnc2cc1OC)CC(=O)OCC` [3(2), 4-[(3-bromophenyl)amino]-6-(2-{N,N-bis[(ethoxycarbonyl)methyl]amino}ethoxy)-7-methoxyquinazoline] it was 70 nM; in that of `COC(=O)CC(CC(=O)OC)N1CCN(CCOc2cc3c(Nc4cccc(Br)c4)ncnc3cc2OC)CC1` [3(4), 4-[(3-bromophenyl)amino]-6-[2-(4-{1-[(methoxycarbonyl)methyl]-2-(methoxycarbonyl)ethyl}piperazin-1-yl)ethoxy]-7-methoxyquinazoline], 77 nM.
With `COC(=O)CN1CCN(CCCOc2cc3c(Nc4ccc(F)c(Cl)c4)ncnc3cc2OC)CC1` [Example 1, 4-(3-chloro-4-fluorophenylamino)-6-{3-[4-(methoxycarbonylmethyl)-1-piperazinyl]propyloxy}-7-methoxyquinazoline], the IC50 on human EGF-R is 46 nM.
The same measure, in the same setting: with `CCOC(=O)CN(C)CCCOc1cc2c(Nc3ccc(F)c(Cl)c3)ncnc2cc1OC` [Example 2, 4-(3-chloro-4-fluorophenylamino)-6-{3-[N-(ethoxycarbonylmethyl)-N-methylamino]propyloxy}-7-methoxyquinazoline] the figure was 230 nM.
In the case of `CCOC(=O)CN1CCN(CCOc2cc3c(Nc4cccc(Br)c4)ncnc3cc2OC)CC1` [Example 3, 4-[(3-bromophenyl)amino]-6-(2-{4-[(ethoxycarbonyl)methyl]piperazin-1-yl}ethoxy)-7-methoxyquinazoline], the melting point is 155 °C. Also, the half-inhibitory concentration (IC50) on human EGF-R came to 45 nM.
On the same counts, the results for `CCOC(=O)CN1CCN(CC(O)COc2cc3c(Nc4cccc(Br)c4)ncnc3cc2OC)CC1` (centres unmarked) [Example 4, 4-[(3-bromophenyl)amino]-6-(3-{4-[(ethoxycarbonyl)methyl]piperazin-1-yl}-2-hydroxypropyloxy)-7-methoxyquinazoline] are 118 to 122 °C and 33 nM.

As a reminder, the IC50 is the concentration at which inhibition is half-maximal. One may read the melting point as the temperature of the solid-liquid transition.

For the origin of these results see patent US20090203683A1, “BICYCLIC HETEROCYCLES, PHARMACEUTICAL COMPOSITIONS CONTAINING THEM, THEIR USE, AND PROCESSES FOR PREPARING THEM” (BOEHRINGER INGELHEIM PHARMA GMBH & CO. KG, priority 2000, published 2009).
